Test results from patent publication US10620215B2, “Real-time imaging sensor for measuring cellular thiol level” (CELL2IN, INC., priority 2014, dated 2020).

Key:
[1] = Chemical equilibrium constant (Kd) of the tracer with β-mercaptoethanol, from fluorescence emission after equilibration; assay type: binding
Description: (§1) A buffer (10 mM phosphate, 150 mM NaCl, pH 7.4, H2O:DMSO=98:2) containing a mixture of a thiol compound (0-200 mM) and a FreSH-tracer (10 μM) was prepared, and the time-dependent UV-Vis absorption spectrum and fluorescence emission spectrum of the buffer were measured with S-3100 spectrophotometer and Hitachi F-7000 spectrophotometer. For preparation of buffers for use in in vitro experiments at pHs of pH 4, 5, 9 and 10, acetate and CHES (2-(cyclohexylamino)ethanesulfonate) were used instead of phosphate.
(§2) After a chemical equilibrium between the thiol compound (0-200 mM) and the FreSH-tracer was formed by an in vitro reaction, the emission spectrum of fluorescence emitted upon excitation with light at a wavelength of 430 nm was measured. The relationship between the fluorescence intensity at the maximum emission wavelength (580 nm) and the concentration of the thiol compound was analyzed by non-linear regression to determine the chemical equilibrium constant (Kd) between the thiol compound and the FreSH-tracer.

[2] = tested on: HeLa cells; experiment: Level of thiols / reduced GSH in living HeLa cells, by FreSH-tracer fluorescence intensity ratio; assay type: cell-based; conditions: treatment with GSH-related enzyme inhibitor
Description: HeLa and RAW264.7 cells were cultured in DMEM (containing 10% heat-inactivated FBS (Hyclone), 100 U/ml of penicillin, 100 μg/ml of streptomycin sulfate and 2 mM glutamine and free of phenol red). HeLa (1.8×10^5 cells/dish) and RAW264.7 (2×10^5 cells/dish) were seeded in 35 mm cover glass bottom dishes (SPL Life Sciences), and then cultured under the conditions of 37° C. and 5% CO2 for the indicated time. Before observation using a fluorescence microscope, the HeLa cells were incubated with 2 mL of a medium containing 5 μM of the FreSH-tracer HeLa for 2 hours, and the RAW264.7 cells were incubated for 4 hours. Real-time images of the cells were acquired using a Nikon A1 laser scanning confocal microscope. The imaging test was 2 performed while the cells were incubated under the conditions of 37° C. and 5% CO2 in a chamber mounted in a Nikon ECLIPSE Ti inverted microscope equipped with CFI Plan apochromat 60× and 1.40 numerical aperture (NA) objective lenses. The FreSH-tracer was excited with laser beams at 403 nm and 488 nm, and the fluorescence of the tracer was detected through filters with 500-550 nm and 570-620 nm band intervals. Using NIS-Elements AR software, the experimental data were analyzed and the ratio of fluorescence was imaged. […]

[3] = tested on: RAW264.7; experiment: Level of thiols in RAW264.7 macrophages after NADPH oxidase activation, by FreSH-tracer F510/F580 ratio; assay type: cell-based; conditions: PMA treatment for 10-20 minutes; returned to basal level after 40-50 minutes
Description: HeLa and RAW264.7 cells were cultured in DMEM (containing 10% heat-inactivated FBS (Hyclone), 100 U/ml of penicillin, 100 μg/ml of streptomycin sulfate and 2 mM glutamine and free of phenol red). HeLa (1.8×10^5 cells/dish) and RAW264.7 (2×10^5 cells/dish) were seeded in 35 mm cover glass bottom dishes (SPL Life Sciences), and then cultured under the conditions of 37° C. and 5% CO2 for the indicated time. Before observation using a fluorescence microscope, the HeLa cells were incubated with 2 mL of a medium containing 5 μM of the FreSH-tracer HeLa for 2 hours, and the RAW264.7 cells were incubated for 4 hours. Real-time images of the cells were acquired using a Nikon A1 laser scanning confocal microscope. The imaging test was 2 performed while the cells were incubated under the conditions of 37° C. and 5% CO2 in a chamber mounted in a Nikon ECLIPSE Ti inverted microscope equipped with CFI Plan apochromat 60× and 1.40 numerical aperture (NA) objective lenses. The FreSH-tracer was excited with laser beams at 403 nm and 488 nm, and the fluorescence of the tracer was detected through filters with 500-550 nm and 570-620 nm band intervals. Using NIS-Elements AR software, the experimental data were analyzed and the ratio of fluorescence was imaged.
ROS that are generated by phagocytic NADPH oxidase (Phox) activity are essential defense substances that kill invasive microorganisms. […]

[4] = Chemical equilibrium constant (Kd) and fluorescence ratio response of the tracer with glutathione (GSH) in vitro; assay type: binding; conditions: equilibration with GSH
Description: as §1, §2

Row | SMILES | Kd [1] [mM] | also measured
1 | CCCCS(=N)(=O)CCC(N)C(=O)O (centres unmarked) [BSO, buthionine sulphoximine] |  | fluorescence intensity ratio of the sensor (level of reduced GSH) in HeLa cells [2]: reduced
2 | CCCCCCCCCCCCCC(=O)O[C@@H]1[C@@H](C)[C@@]2(O)[C@@H](C=C(CO)C[C@]3(O)C(=O)C(C)=C[C@@H]23)[C@@H]2C(C)(C)[C@]12OC(C)=O [PMA, phorbol 12-myristate 13-acetate] |  | level of thiols in the cells [3]: reduced
3 | CCOC(=O)CNC(=O)C(C#N)=Cc1cc2cc3c4c(c2oc1=O)CCCN4CCC3 [formula 3] | 14 ± 1 | 
4 | CN(C)C(=O)C(C#N)=Cc1cc2cc3c4c(c2oc1=O)CCCN4CCC3 [formula 2] | 12 ± 1 | 
5 | CC(=O)OCOC(=O)CC[C@H](NC(=O)C1CCN(C(=O)C(C#N)=Cc2cc3cc4c5c(c3oc2=O)CCCN5CCC4)CC1)C(=O)OCOC(C)=O [formula 7] |  | Kd [4]: 3.7 ± 0.2 mM
6 | CC(=O)OCOC(=O)C1CCN(C(=O)C(C#N)=Cc2cc3cc4c5c(c3oc2=O)CCCN5CCC4)CC1 [formula 4] |  | Kd [4]: 2.8 ± 0.4 mM

Continued, in another order:

Row | Kd [1] [mM] | SMILES | also measured
7 | 2.2 ± 0.1 | CCN(CC)c1ccc2cc(C=C(C#N)C(=O)N(C)C)c(=O)oc2c1 [formula 8] | 
8 | 2.2 ± 0.1 | N#CC(=Cc1cc2cc3c4c(c2oc1=O)CCCN4CCC3)C(=O)N1CCC(C(=O)NCC[P+](c2ccccc2)(c2ccccc2)c2ccccc2)CC1 [formula 5] | 
